In series [1] the target is GCPII (Homo sapiens, UniProt Q04609). The experiment in a line: fluorescence-based NAALADase assay, in vitro GCPII inhibitory activity. The note with it: relative to 32a.
Series [2] addresses cloned human GCPII. As to conditions: cited from earlier work.
Series [3] has as its system inflammatory and neuropathic pain models. The note with it: cited from earlier work.

Molecules are shown by their SMILES.

GCPII, sequence (Q04609 whole entry): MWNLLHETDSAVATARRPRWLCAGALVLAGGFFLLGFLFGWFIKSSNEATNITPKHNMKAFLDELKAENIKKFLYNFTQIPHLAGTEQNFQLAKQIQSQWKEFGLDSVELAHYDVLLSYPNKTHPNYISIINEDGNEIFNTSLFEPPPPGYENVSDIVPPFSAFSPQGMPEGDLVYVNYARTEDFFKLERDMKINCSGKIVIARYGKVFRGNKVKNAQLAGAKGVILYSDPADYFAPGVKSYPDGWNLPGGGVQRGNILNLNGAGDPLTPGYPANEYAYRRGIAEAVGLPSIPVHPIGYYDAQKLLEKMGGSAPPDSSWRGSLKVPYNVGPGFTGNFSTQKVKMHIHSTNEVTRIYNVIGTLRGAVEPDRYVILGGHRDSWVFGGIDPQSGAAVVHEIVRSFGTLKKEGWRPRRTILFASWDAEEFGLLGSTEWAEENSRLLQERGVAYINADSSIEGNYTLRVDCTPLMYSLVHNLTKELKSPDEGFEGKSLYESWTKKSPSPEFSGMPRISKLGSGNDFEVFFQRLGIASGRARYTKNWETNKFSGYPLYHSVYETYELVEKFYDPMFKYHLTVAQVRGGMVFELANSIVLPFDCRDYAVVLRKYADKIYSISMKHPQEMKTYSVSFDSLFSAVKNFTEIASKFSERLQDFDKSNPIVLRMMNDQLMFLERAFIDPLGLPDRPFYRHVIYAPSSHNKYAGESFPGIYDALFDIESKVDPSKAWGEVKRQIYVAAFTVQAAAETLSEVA

In the case of `O=C(N[C@@H](CCCCNC(=O)c1ccc(I)cc1)C(=O)O)NC1(C(=O)O)CC1` [32c], in series [1], the “fold stronger binding affinity for GCPII compared to 32a” value turned out to be 4 fold.
Same read-out and setting: for `C=CC[C@H](NC(=O)N[C@@H](CCCCNC(=O)c1ccc(I)cc1)C(=O)O)C(=O)O` [32d] the value was 120 fold.
Usually Ki stands for a measure of affinity in units of concentration, obtained from inhibition or displacement. On to `CC(C)C[C@H](NC(=O)N[C@@H](CCC(=O)O)C(=O)O)C(=O)O` [ZJ-43, (S)-2-(3-((S)-1-carboxy-3-methylbutyl)ureido)pentanedioic acid], for which the Ki in series [2] was 0.8 nM. Also, the “penetration of the blood-brain barrier” value in series [3] is listed as “low penetration”. The analgesic activity result in series [3] (high doses (50–100 mg/kg) needed) was “demonstrated analgesic activity”.

These data come from article PMC2818328 (Bioorganic & medicinal chemistry letters, 2009).
